Test results from ChEMBL document CHEMBL1134333, “[3H]N-2-(4-(N-benzamido)phenyl)propyl-2-propanesulfonamide: a novel AMPA receptor potentiator and radioligand” (J Med Chem, 2001).

How the values were obtained:
[1] = target: T1, Glutamate receptor ionotropic, AMPA (Rattus norvegicus, UniProt P19490+P19491+P19492+P19493); test: Inhibition of binding to AMPA receptor from rat cerebral cortex; type: tissue-based
[2] = target: T1, Glutamate receptor ionotropic, AMPA; test: Effective concentration of glutamate required to increase specific binding of [3H]6 to rat cerebral cortical membranes.
[3] = target: T1, Glutamate receptor ionotropic, AMPA; test: Effective concentration of AMPA required to increase specific binding of [3H]6 to rat cerebral cortical membranes.

Structure (SMILES) | IC50 [1] [µM] | EC50 [2] [µM] | EC50 [3] [µM]
NS(=O)(=O)c1cc2c(cc1Cl)NC(C1CC3C=CC1C3)NS2(=O)=O (centres undefined) [CYCLOTHIAZIDE] | 6.1 |  | 
CC(CNS(=O)(=O)C(C)C)c1ccc(NC(=O)c2ccccc2)cc1 (centres undefined) | 0.17 | 31 | 5.5
